Values quoted from earlier work in patent publication US11191745B2, “Silica nanoparticle with an insoluble drug” (CITY OF HOPE, priority 2017, dated 2021).

Test system: plasma proteins
Conditions: systemically administered

- drug bound to plasma proteins: more than 90%
SMILES: CC(=O)O[C@H]1C(=O)[C@@]2(C)[C@H]([C@H](OC(=O)c3ccccc3)[C@]3(O)C[C@H](OC(=O)[C@H](O)[C@@H](NC(=O)c4ccccc4)c4ccccc4)C(C)=C1C3(C)C)[C@]1(OC(C)=O)CO[C@@H]1C[C@@H]2O [PTX, Paclitaxel]
